Data reported in patent EP0641797A1, “Cephem derivatives and antimicrobial agents containing the same” (KATAYAMA SEIYAKUSYO CO. Ltd., priority 1993, dated 1995).
Values after ≈ are worked out from the molar mass of the structure shown.

Columns and labels:
Test in all cases: MIC on standard strains, standard method of Japan Society of Chemotherapy
Format in all cases: cell-based
A. calcoaceticos T59 = details: read-out: MIC
Method: (§1) Antimicrobial activity of the compounds of the present invention were measured using CTM (cefotiam) and FMOX (flomoxef) as control drugs in accordance with the standard method of Japan Society of Chemotherapy. Of the 25 standard strains used in this test, Staphylococcus aureus 167 and Staphylococcus aureus 195 belong to MRSA.
(§2) In these tables, drugs tested are shown by the corresponding examples in which they were synthesized.

A. faecalis ATCC 3750 = details: Alcaligenes faecalis, ATCC3750, A. faecalis ATCC 3750; read-out: MIC
Method: as §1, §2

B. subtilis ATCC 6633 = details: Bacillus subtilis, ATCC6633, B. subtilis ATCC 6633; read-out: MIC
Method: as §1, §2

C. freundii ATCC 8090 = details: Citrobacter freundii, ATCC8090, C. freundii ATCC 8090; read-out: MIC
Method: as §1, §2

E. cloacae ATCC 13407 = details: Enterobacter cloacae, ATCC13407, E. cloacae ATCC 13407; read-out: MIC
Method: as §1, §2

E. cloacae Nek39 = details: Enterobacter cloacae, NEK39, E. cloacae Nek39; read-out: MIC
Method: as §1, §2

E. coli CSH2(RE45) = details: Escherichia coli
Method: as §1, §2

E. coli CSH2(RK1) = details: Escherichia coli
Method: as §1, §2

E. coli NHIJ JC-2 = details: Escherichia coli, NHIJJC2
Method: as §1, §2

K. pneuminiae IFO 3317 = tested on: K. pneuminiae IFO 3317
Method: as §1, §2

K. pneuminiae No. 42 = tested on: K. pneuminiae No. 42
Method: as §1, §2

M. luteus ATCC 9341 = details: Micrococcus luteus, ATCC9341
Method: as §1, §2

M. morganii IFO 3848 = details: Morganella morganii, IFO3848
Method: as §1, §2

P. aeruginosa AKR17 = details: Pseudomonas aeruginosa
Method: as §1, §2

P. aeruginosa NCTC 10490 = details: Pseudomonas aeruginosa, NCTC10490, P. aeruginosa NCTC 10490; read-out: MIC
Method: as §1, §2

P. cepacia = details: Burkholderia cepacia, read-out: MIC
Method: as §1, §2

P. mirabilis IFO 3849 = details: Proteus mirabilis, IFO3849, P. mirabilis IFO 3849; read-out: MIC
Method: as §1, §2

P. vulugaris OX-19 = tested on: P. vulugaris OX-19
Method: as §1, §2

S. aureus 167 = details: Staphylococcus aureus; S. aureus 167 (MRSA)
Method: as §1, §2

S. aureus 195 = details: Staphylococcus aureus; S. aureus 195 (MRSA)
Method: as §1, §2

S. aureus 209p JC-1 = details: Staphylococcus aureus, 209P, read-out: MIC
Method: as §1, §2

S. aureus Smith = details: Staphylococcus aureus, read-out: MIC
Method: as §1, §2

S. epidemidis IAM 1296 = tested on: S. epidemidis IAM 1296
Method: as §1, §2

S. marcescens IAM 1184 = details: Serratia marcescens, IAM1184, S. marcescens IAM 1184; read-out: MIC
Method: as §1, §2

S. marcescens No. 16-2 = details: Serratia marcescens, NO.162
Method: as §1, §2

Compound	MIC (A. calcoaceticos T59) [µg/mL]	MIC (A. faecalis ATCC 3750) [µg/mL]	MIC (B. subtilis ATCC 6633) [µg/mL]	MIC (C. freundii ATCC 8090) [µg/mL]	MIC (E. cloacae ATCC 13407) [µg/mL]	MIC (E. cloacae Nek39) [µg/mL]	MIC (E. coli CSH2(RE45)) [µg/mL]	MIC (E. coli CSH2(RK1)) [µg/mL]	MIC (E. coli NHIJ JC-2) [µg/mL]	MIC (K. pneuminiae IFO 3317) [µg/mL]	MIC (K. pneuminiae No. 42) [µg/mL]	MIC (M. luteus ATCC 9341) [µg/mL]	MIC (M. morganii IFO 3848) [µg/mL]	MIC (P. aeruginosa AKR17) [µg/mL]	MIC (P. aeruginosa NCTC 10490) [µg/mL]	MIC (P. cepacia) [µg/mL]	MIC (P. mirabilis IFO 3849) [µg/mL]	MIC (P. vulugaris OX-19) [µg/mL]	MIC (S. aureus 167) [µg/mL]	MIC (S. aureus 195) [µg/mL]	further results
Nc1nc(/C(=N/O)C(=O)N[C@@H]2C(=O)N3C(C(=O)[O-])=C(C[n+]4cccc(-c5ncno5)c4)CS[C@H]23)cs1 [Ex. 7, 7β-[2-(2-aminothiazol-4-yl)-2-syn-hydroxyiminoacetamido]-3-[3-(1,2,4-oxadiazol-5-yl)pyridinio]methyl-3-cephem-4-carboxylate]	25 (≈ 47.3 µM)	3.13 (≈ 5.92 µM)	0.78 (≈ 1.48 µM)	0.78 (≈ 1.48 µM)	6.25 (≈ 11.8 µM)	100 (≈ 189 µM)	1.56 (≈ 2.95 µM)	1.56 (≈ 2.95 µM)	0.78 (≈ 1.48 µM)	0.78 (≈ 1.48 µM)	1.56 (≈ 2.95 µM)	0.2 (≈ 0.378 µM)	0.39 (≈ 0.738 µM)	> 100	6.25 (≈ 11.8 µM)	> 100	0.78 (≈ 1.48 µM)	1.56 (≈ 2.95 µM)	12.5 (≈ 23.7 µM)	6.25 (≈ 11.8 µM)	MIC (S. aureus 209p JC-1): 0.39 µg/mL (≈ 0.738 µM); MIC (S. aureus Smith): 0.78 µg/mL (≈ 1.48 µM); MIC (S. epidemidis IAM 1296): 0.2 µg/mL (≈ 0.378 µM); MIC (S. marcescens IAM 1184): 0.78 µg/mL (≈ 1.48 µM); MIC (S. marcescens No. 16-2): > 100 µg/mL
Nc1nc(/C(=N/O)C(=O)N[C@@H]2C(=O)N3C(C(=O)[O-])=C(C[n+]4ccc(-c5ncno5)cc4)CS[C@H]23)cs1 [Ex. 8, 7β-[2-(2-aminothiazol-4-yl)-2-syn-hydroxyiminoacetamido]-3-[4-(1,2,4-oxadiazol-5-yl)pyridinio]methyl-3-cephem-4-carboxylate]	12.5 (≈ 23.7 µM)	0.78 (≈ 1.48 µM)	0.78 (≈ 1.48 µM)	0.2 (≈ 0.378 µM)	3.13 (≈ 5.92 µM)	50 (≈ 94.6 µM)	0.39 (≈ 0.738 µM)	1.56 (≈ 2.95 µM)	0.39 (≈ 0.738 µM)	0.2 (≈ 0.378 µM)	0.78 (≈ 1.48 µM)	0.05 (≈ 0.0946 µM)	0.05 (≈ 0.0946 µM)	> 100	1.56 (≈ 2.95 µM)	> 100	0.2 (≈ 0.378 µM)	0.2 (≈ 0.378 µM)	12.5 (≈ 23.7 µM)	3.13 (≈ 5.92 µM)	MIC (S. aureus 209p JC-1): 0.39 µg/mL (≈ 0.738 µM); MIC (S. aureus Smith): 0.39 µg/mL (≈ 0.738 µM); MIC (S. epidemidis IAM 1296): 0.1 µg/mL (≈ 0.189 µM); MIC (S. marcescens IAM 1184): 0.39 µg/mL (≈ 0.738 µM); MIC (S. marcescens No. 16-2): 100 µg/mL (≈ 189 µM)
Nc1nc(/C(=N/O)C(=O)N[C@@H]2C(=O)N3C(C(=O)[O-])=C(C[n+]4cccc(-c5cscn5)c4)CS[C@H]23)cs1 [Ex. 9, 7β-[2-(2-aminothiazol-4-yl)-2-syn-hydroxyiminoacetamido]-3-[3-(thiazol-4-yl)pyridinio]methyl-3-cephem-4-carboxylate iodide]	12.5	3.13	0.2	0.2	1.56	50	0.39	0.39	0.2	0.2	0.39	0.05	0.1	> 100	3.13	> 100	0.39	0.39	6.25	1.56	MIC (S. aureus 209p JC-1): 0.1 µg/mL; MIC (S. aureus Smith): 0.2 µg/mL; MIC (S. epidemidis IAM 1296): 0.05 µg/mL; MIC (S. marcescens IAM 1184): 0.39 µg/mL; MIC (S. marcescens No. 16-2): 50 µg/mL
